In patent US20130310374A1, “Substituted Imidazoquinoline Derivatives” (PIRAMAL ENTERPRISES LIMITED`, priority 2010, published 2013):

How the values were obtained:
PC3 = test: Cytotoxicity propidium iodide assay, PC3; assay type: cell-based, human; conditions: Homo sapiens, PC-3; PC3 (prostate), 48 hours treatment; read-out: IC50 Values in μM, C2a
In short: (§1)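 3000 cells/well; 18-24 h attach, 37° C./5% CO2; compound dilution series in medium (DMSO stock), 48 h; PBS wash; PI […]; freeze overnight, thaw at RT; fluorescence read; % viability vs untreated; IC50 from curve.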

MCF7 = test: Cytotoxicity propidium iodide assay, MCF7; assay type: cell-based; conditions: Homo sapiens; MCF7 (breast), 48 hours treatment; read-out: IC50 Values in μM, C3d
In short: as §1

PANC 1 = test: Cytotoxicity propidium iodide assay, PANC 1; assay type: cell-based; conditions: Homo sapiens; PANC 1 (pancreatic), 48 hours treatment; read-out: IC50 Values in μM, C4a
Method: (§2) The assay was designed as in the reference, Anticancer Drugs, 2002, 13, 1-8, the disclosure of which is incorporated herein by reference for the teaching of the assay.
(§3) Cells from cell lines (ATCC) as mentioned in the table given below were seeded at a density of 3000 cells/well in a white opaque 96-well plate. Following incubation at 37° C./5% CO2 for a period of 18-24 hours, the cells were treated with various concentrations (stock solution was prepared in DMSO and subsequent dilutions were made in media as per ATCC guidelines) of the compounds of the present invention for a period of 48 hours. At the end of treatment, the culture medium was discarded, the cells were washed with 1×PBS and 200 μL of […] propidium iodide was added to each well. The plates were frozen at […] overnight. For analysis, the plates were warmed to RT, allowed to thaw and were read in PoleStar fluorimeter with the fluorescence setting. The percentage of viable cells in the non-treated set of wells was considered to be 100 and the percentage viability following treatment was calculated accordingly. IC50 values were calculated from graphs plotted using these percentages. IC50 values for certain compounds of present invention are depicted in Table 1 and % Inhibition of certain compounds of present invention are depicted in Table 2.

BxPC3 = test: Cytotoxicity propidium iodide assay, BxPC3; assay type: cell-based; conditions: Homo sapiens, BXPC-3; BxPC3 (pancreatic), 48 hours treatment; read-out: IC50 Values in μM, C4c
In short: as §1

LN229 = test: Cytotoxicity propidium iodide assay, LN229; assay type: cell-based; conditions: Homo sapiens, LN-229; LN229 (glioblastoma), 48 hours treatment; read-out: IC50 Values in μM, C5a
Method: as §2, §3

T315I = test: Cytotoxicity propidium iodide assay, T315I; assay type: cell-based; conditions: T315I (CML), 48 hours treatment; read-out: IC50 Values in μM, C6b
Method: as §2, §3

KU812/SR = test: Cytotoxicity propidium iodide assay, KU812/SR; assay type: cell-based; conditions: Homo sapiens; KU812/SR (CML), 48 hours treatment; read-out: IC50 Values in μM, C6c
In short: as §1

hPBMC [1] = test: MTS toxicity assay in parallel to Con-A-induced IFN-γ assay; assay type: cell-based, human; conditions: Con-A experiment
Method: Peripheral blood was collected from normal healthy volunteers after informed consent. Peripheral blood mononuclear cells (hPBMC) were harvested using Ficoll-Hypaque density gradient centrifugation (1.077 g/mL; Sigma Aldrich). hPBMCs were resuspended in RPMI 1640 culture medium (Gibco BRL, Pasley, UK) containing 10% FCS, 100 U/mL penicillin (Sigma Chemical Co. St Louis, Mo.) and […] streptomycin (Sigma Chemical Co. St Louis, Mo.) at 1×10^6 cells/mL. 1×10^5 hPBMCs/well were pre-treated with 0.025 μM of compounds of present invention or 0.5% DMSO (vehicle control) for 30 minutes at 37° C. Subsequently, these cells were stimulated with 1 μg/mL concanavalin A (Sigma Chemical Co., St. Louis, Mo.). Following 18 hours of incubation at 37° C., supernatants were collected and stored at −70° C. until assayed for human IFN-γ by ELISA as described by the manufacturer (OptiEIA ELISA sets, BD BioSciences). In every experiment, cyclosporin (1 μM) was used as a positive control for inhibiting induced IFN-γ production. In all experiments, the toxicity of test compounds was ascertained, in parallel, using the MTS (3-(4,5-dimethylthiazol-2-yl)-5-(3-carboxymethoxyphenyl)-2-(4-sulfonyl)-2H-tetrazolium) assay as described in Am. J. Physiol. Cell Physiol., 2003, 285, C813-C822.

TNF-α = test: Anti-CD3 mAb and anti-CD28 mAb-induced cytokine production assay, TNF-α; assay type: cell-based; conditions: Homo sapiens, hPBMC, anti-CD3/anti-CD28, 18 hours
Method: (§4) Anti-CD3 mAb and Anti-CD28 mAb-Induced Cytokine Production Assay
(§5) Preparation of anti-CD3/anti-CD28 coated plates: 96 well plates were coated with goat anti-mouse IgG, Fc (Millipore) at a concentration of 16.5 μg/mL in coating buffer ([…] NaHCO3, 3.56 g Na2CO3, pH 9.5). Following overnight incubation at 4° C., the plates were washed and then incubated with anti-CD3 (3.5 μg/mL; R&D Systems) and anti-CD28 (35 ng/mL; R&D Systems) cocktail for 3 hours. Subsequently, the plates were washed, and used for hPBMC stimulation.
(§6) hPBMC stimulation: Peripheral blood was collected from normal healthy volunteers after informed consent. Peripheral blood mononuclear cells (hPBMC) were harvested using Ficoll-Hypaque density gradient centrifugation (1.077 g/mL; Sigma Aldrich). hPBMCs were resuspended in RPMI 1640 culture medium (Gibco BRL, Pasley, UK) containing 10% FCS, 100 U/mL penicillin (Sigma Chemical Co. St Louis, Mo.) and […] streptomycin (Sigma Chemical Co. St Louis, Mo.) at 1.25×10^6 cells/mL of assay medium. 2.5×10^5 hPBMCs were added per well of 96-well plate coated with or without anti-CD3/anti-CD28 mAbs. Simultaneously, 0.025 μM of compounds of the present invention or 0.5% DMSO (vehicle control) were added to appropriate wells. The cells were then incubated for 18 hours at 37° C., 5% CO2 following which supernatants were collected, stored at […] and assayed later for TNF-α, IL-6 and IFN-γ by ELISA (OptiEIA ELISA sets; BD Biosciences). In every experiment, each condition was run in triplicate wells. In all experiments, the toxicity of test compounds was ascertained, in parallel, using the MTS (3-(4,5-dimethylthiazol-2-yl)-5-(3-carboxymethoxyphenyl)-2-(4-sulfonyl)-2H-tetrazolium) assay as described in Am. J. Physiol. Cell Physiol., 2003, 285, C813-C822.

IL-6 = test: Anti-CD3 mAb and anti-CD28 mAb-induced cytokine production assay, IL-6; assay type: cell-based; conditions: Homo sapiens, hPBMC, anti-CD3/anti-CD28, 18 hours
Method: as §4, §5, §6

IFN-γ = test: Anti-CD3 mAb and anti-CD28 mAb-induced cytokine production assay, IFN-γ; assay type: cell-based; conditions: Homo sapiens, hPBMC, anti-CD3/anti-CD28, 18 hours
Method: as §4, §5, §6

hPBMC [2] = test: MTS toxicity assay in parallel to anti-CD3/anti-CD28 cytokine assay; assay type: cell-based, human; conditions: anti-CD3/anti-CD28 experiment
Method: as §6

Row | SMILES | IC50 (PC3) [µM] | IC50 (MCF7) [µM] | IC50 (PANC 1) [µM] | IC50 (BxPC3) [µM] | IC50 (LN229) [µM] | IC50 (T315I) [µM] | IC50 (KU812/SR) [µM] | % Toxicity at 0.025 μM (hPBMC [1]) [%] | inhibition at 0.025 µM (TNF-α) [%] | inhibition at 0.025 µM (IL-6) [%] | inhibition at 0.025 µM (IFN-γ) [%] | % Toxicity at 0.025 μM (hPBMC [2]) [%]
1 | CC(C)(C#N)c1ccc(-n2c(=O)n(CC#N)c3cnc4ccc(-c5cnc(N)c(C(F)(F)F)c5)cc4c32)cn1 [Example 16, 2-(5-(8-(6-Amino-5-(trifluoromethyl)pyridin-3-yl)-3-(cyanomethyl)-2-oxo-2,3-dihydro-1H-imidazo[4,5-c]quinolin-1-yl)pyridin-2-yl)-2-methylpropanenitrile] | 0.025 | 0.03 | 0.017 | 0.008 | 0.65 | 2.13 | 0.19 | 3 | 81 | 75 | 80 | 0
2 | Cn1c(=O)n(-c2ccc(C(C)(C)C#N)nc2)c2c3cc(-c4cnc(N)c(C(F)(F)F)c4)ccc3ncc21 [Example 3, 2-(5-(8-(6-Amino-5-(trifluoromethyl)pyridin-3-yl)-3-methyl-2-oxo-2,3-dihydro-1H-imidazo[4,5-c]quinolin-1-yl)pyridin-2-yl)-2-methylpropanenitrile] | 0.005 | 0.026 | 0.01 | 0.01 | 0.056 | 0.32 | 0.19 | 21 | 92 | 84 | 93 | 24
3 | COc1ccc(-n2c(=O)n(C)c3cnc4ccc(-c5cnc(N)c(C(F)(F)F)c5)cc4c32)cn1 [Example 19, 8-(6-Amino-5-(trifluoromethyl)pyridin-3-yl)-1-(6-methoxypyridin-3-yl)-3-methyl-1H-imidazo[4,5-c]quinolin-2(3H)-one] | 0.006 | 0.054 | 0.026 | 0.016 | 0.096 | 0.049 | 0.06 | 18 | 87 | 86 | 87 | 19
4 | Cn1c(=O)n(-c2ccc(C(C)(C)C#N)nc2)c2c3cc(-c4cnc5ccccc5c4)ccc3ncc21 [Example 2, 2-Methyl-2-(5-(3-methyl-2-oxo-8-(quinolin-3-yl)-2,3-dihydro-1H-imidazo[4,5-c]quinolin-1-yl)pyridin-2-yl)propanenitrile] | 0.068 | 0.09 | 0.1 | 0.04 | 0.55 |  |  | 12 | 63 | 43 | 71 | 12
